{"source": "paper PMC7296828", "about": "(Biochemistry, 2020)", "target": "T1, Ribonuclease 6 (RNase 6, RNase K6) (Homo sapiens, UniProt Q93091)", "T1 sequence (Q93091 24-150)": "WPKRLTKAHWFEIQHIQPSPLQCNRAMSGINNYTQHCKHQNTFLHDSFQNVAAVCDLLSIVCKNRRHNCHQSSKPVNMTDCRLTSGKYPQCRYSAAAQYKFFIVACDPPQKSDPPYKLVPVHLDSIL", "experiment": "X-ray crystal structure", "assay_type": "binding"}
{"smiles": "Nc1ncnc2c1ncn2[C@@H]1O[C@H](COP(=O)(O)O)[C@@H](O)[C@H]1O", "note": "[5’-AMP]", "values": [{"measurement": "Kd", "value": "154 ± 5", "unit": "µM"}]}
